In the assay the target is S. aureus GyrB ATPase (Staphylococcus aureus, UniProt P0A0K8). Description: S. aureus (SAU) GyrB ATPase inhibition, malachite green phosphate detection (E. coli GyrA + S. aureus GyrB). Type of assay: biochemical. Particulars: compound concentration of 1.0 μM unless otherwise noted; average value where assay was carried out more than once; read-out: S. aureus (SAU) GyrB ATPase % Inhibition. How it is done:
Compounds were tested for inhibition of GyrB ATPase activity using an ammonium molybdate/malachite green-based phosphate detection assay (Lanzetta, P. A., L. J. Alvarez, P. S. Reinach, and O. A. Candia, 1979, 100: 95-97). Assays were performed in multiwell plates in 100 μl reactions containing: 50 mM Hepes buffer pH 7.5, 75 mM ammonium acetate, 8.0 mM magnesium chloride, 1.0 mM ethylenediaminetetraacetic acid, 5% glycerol, 2 mM 1,4-Dithio-DL-threitol, 400 nM bovine serum albumin, 5 μg/ml sheared salmon sperm DNA, 1.25 nM E. coli GyrA, 1.25 nM S. aureus GyrB, 500 μM ATP, and compound in dimethylsulfoxide. Reactions were quenched with 150 μl of ammonium molybdate/malachite green detection reagent containing 1.2 mM malachite green hydrochloride, 8.5 mM ammonium molybdate tetrahydrate, and 1 M hydrochloric acid. Plates were read in an absorbance plate reader at 650 nm and percent inhibition values were calculated using dimethylsulfoxide (2%)-containing reactions as 0% inhibition and novobiocin-containing (2 μM) reactions as 100% inhibition controls. Compound potency was based on IC50 measurements determined from reactions performed in the presence of 10 different compound concentrations.
Sequence of S. aureus GyrB ATPase (P0A0K8 whole entry): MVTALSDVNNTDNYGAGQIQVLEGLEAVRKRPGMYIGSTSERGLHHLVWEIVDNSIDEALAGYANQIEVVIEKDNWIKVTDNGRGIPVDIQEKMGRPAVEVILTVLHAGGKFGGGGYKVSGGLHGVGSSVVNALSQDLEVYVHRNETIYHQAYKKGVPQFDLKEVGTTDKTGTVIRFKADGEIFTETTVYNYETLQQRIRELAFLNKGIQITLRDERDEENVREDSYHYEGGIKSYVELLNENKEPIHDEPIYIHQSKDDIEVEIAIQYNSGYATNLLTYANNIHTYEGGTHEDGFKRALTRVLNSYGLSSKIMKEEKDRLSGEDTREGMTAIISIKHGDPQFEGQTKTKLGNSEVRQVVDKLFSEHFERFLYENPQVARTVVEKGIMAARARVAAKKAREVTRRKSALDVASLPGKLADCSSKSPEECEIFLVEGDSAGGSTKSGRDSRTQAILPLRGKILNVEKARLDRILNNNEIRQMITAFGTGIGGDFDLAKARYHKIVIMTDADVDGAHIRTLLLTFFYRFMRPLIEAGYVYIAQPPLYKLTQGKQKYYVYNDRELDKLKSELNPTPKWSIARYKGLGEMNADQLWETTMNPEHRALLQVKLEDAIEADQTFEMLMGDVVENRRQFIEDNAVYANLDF
Sequence of S. aureus GyrB ATPase (P0AES4 whole entry, further chain): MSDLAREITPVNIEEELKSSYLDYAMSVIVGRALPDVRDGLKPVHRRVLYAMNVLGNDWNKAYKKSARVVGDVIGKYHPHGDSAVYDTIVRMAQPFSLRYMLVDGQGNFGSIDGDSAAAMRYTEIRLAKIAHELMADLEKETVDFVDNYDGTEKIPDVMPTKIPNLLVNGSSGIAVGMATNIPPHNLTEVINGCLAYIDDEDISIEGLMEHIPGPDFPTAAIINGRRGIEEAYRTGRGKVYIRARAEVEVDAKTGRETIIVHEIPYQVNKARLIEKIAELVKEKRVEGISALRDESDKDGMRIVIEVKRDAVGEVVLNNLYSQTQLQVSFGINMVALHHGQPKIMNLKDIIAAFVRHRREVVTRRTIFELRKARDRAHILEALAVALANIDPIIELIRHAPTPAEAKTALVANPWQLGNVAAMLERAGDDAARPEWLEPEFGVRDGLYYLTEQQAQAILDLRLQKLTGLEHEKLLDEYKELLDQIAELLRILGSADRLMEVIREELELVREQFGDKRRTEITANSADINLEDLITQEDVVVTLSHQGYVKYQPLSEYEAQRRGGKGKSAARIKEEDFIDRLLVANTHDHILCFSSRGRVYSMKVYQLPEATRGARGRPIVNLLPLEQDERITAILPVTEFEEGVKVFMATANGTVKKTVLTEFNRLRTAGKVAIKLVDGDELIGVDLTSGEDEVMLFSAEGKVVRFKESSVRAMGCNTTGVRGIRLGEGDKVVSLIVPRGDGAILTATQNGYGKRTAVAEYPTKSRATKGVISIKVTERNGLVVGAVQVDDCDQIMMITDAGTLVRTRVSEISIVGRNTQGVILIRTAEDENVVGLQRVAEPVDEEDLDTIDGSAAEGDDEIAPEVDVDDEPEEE
With `CCNC(=O)Nc1cc(-c2nc(C(F)(F)F)c(C(=O)NCCN3CCOCC3)s2)c(-c2cncc(-c3n[nH]c(=O)o3)c2)cn1` [Example 61, 2-(6-(3-ethylureido)-5′-(5-oxo-4,5-dihydro-1,3,4-oxadiazol-2-yl)-3,3′-bipyridin-4-yl)-N-(2-morpholinoethyl)-4-(trifluoromethyl)thiazole-5-carboxamide], the inhibition at 1 µM turned out to be 95%. The result for `CCNC(=O)Nc1cc(-c2nc(C(F)(F)F)c(C(=O)NCCN3CCOCC3)s2)c(-c2cncc(-c3nnc(C)o3)c2)cn1` [Example 62, 2-(6-(3-ethylureido)-5′-(5-methyl-1,3,4-oxadiazol-2-yl)-3,3′-bipyridin-4-yl)-N-(2-morpholinoethyl)-4-(trifluoromethyl)thiazole-5-carboxamide] reads 86%. The result for `CCNC(=O)Nc1cc(-c2nc(C(F)(F)F)c(C(=O)NCCN3CCN(C)CC3)s2)c(-c2cncc(-c3n[nH]c(=O)o3)c2)cn1` [Example 63] reads 96%; that for `CCNC(=O)Nc1cc(-c2nc(C(F)(F)F)c(C(=O)NCCN3CCN(C)CC3)s2)c(-c2cncc(-c3nnc(C)o3)c2)cn1` [Example 64, 2-(6-(3-ethylureido)-5′-(5-methyl-1,3,4-oxadiazol-2-yl)-3,3′-bipyridin-4-yl)-N-(2-(4-methylpiperazin-1-yl)ethyl)-4-(trifluoromethyl)thiazole-5-carboxamide], 98%; that for `CCNC(=O)Nc1cc(-c2nc(C(F)(F)F)c(C(=O)NC3CC3)s2)c(-c2cncc(-c3n[nH]c(=O)o3)c2)cn1` [Example 65], 94%. For `CCNC(=O)Nc1cc(-c2nc(C(F)(F)F)c(C(=O)NC3CC3)s2)c(-c2cncc(-c3nnc(C)o3)c2)cn1` [Example 66, N-cyclopropyl-2-(6-(3-ethylureido)-5′-(5-methyl-1,3,4-oxadiazol-2-yl)-3,3′-bipyridin-4-yl)-4-(trifluoromethyl)thiazole-5-carboxamide] the value was 93%; for `CCNC(=O)Nc1cc(-c2nc(C(F)(F)F)c(C(=O)NC3CCCC3)s2)c(-c2cncc(-c3n[nH]c(=O)o3)c2)cn1` [Example 67, N-cyclopentyl-2-(6-(3-ethylureido)-5′-(5-oxo-4,5-dihydro-1,3,4-oxadiazol-2-yl)-3,3′-bipyridin-4-yl)-4-(trifluoromethyl)thiazole-5-carboxamide], 93%; for `CCNC(=O)Nc1cc(-c2nc(C(F)(F)F)c(C(=O)NC3CCCC3)s2)c(-c2cncc(-c3nnc(C)o3)c2)cn1` [Example 68, N-cyclopentyl-2-(6-(3-ethylureido)-5′-(5-methyl-1,3,4-oxadiazol-2-yl)-3,3′-bipyridin-4-yl)-4-(trifluoromethyl)thiazole-5-carboxamide], 96%. With `CCNC(=O)Nc1cc(-c2nc(C(F)(F)F)c(C(=O)NC3CCCCC3)s2)c(-c2cncc(-c3n[nH]c(=O)o3)c2)cn1` [Example 69, N-cyclohexyl-2-(6-(3-ethylureido)-5′-(5-oxo-4,5-dihydro-1,3,4-oxadiazol-2-yl)-3,3′-bipyridin-4-yl)-4-(trifluoromethyl)thiazole-5-carboxamide], the inhibition at 1 µM was 91%.

For the compound `CCNC(=O)Nc1cc(-c2nc(C(F)(F)F)c(C(=O)NC3CCCCC3)s2)c(-c2cncc(-c3nnc(C)o3)c2)cn1` [Example 70, N-cyclohexyl-2-(6-(3-ethylureido)-5′-(5-methyl-1,3,4-oxadiazol-2-yl)-3,3′-bipyridin-4-yl)-4-(trifluoromethyl)thiazole-5-carboxamide], the inhibition at 1 µM was found to be 96%. For `CCNC(=O)Nc1cc(-c2nc(C(F)(F)F)cs2)c(-c2cc(-c3n[nH]c(=O)o3)cnc2CC)cn1` [Example 71, 1-ethyl-3-(2′-ethyl-5′-(5-hydroxy-1,3,4-oxadiazol-2-yl)-4-(4-(trifluoromethyl)thiazol-2-yl)-3,3′-bipyridin-6-yl)urea] the value was 93%; for `CCNC(=O)Nc1cc(-c2nc(-c3ccccc3)cs2)c(-c2cc(-c3n[nH]c(=O)o3)cnc2CC)cn1` [Example 72, 1-ethyl-3-(2′-ethyl-5′-(5-hydroxy-1,3,4-oxadiazol-2-yl)-4-(4-phenylthiazol-2-yl)-3,3′-bipyridin-6-yl)urea], 95%. For the compound `CCNC(=O)Nc1cc(-c2nc(C(F)(F)F)cs2)c(-c2cc(-c3nnc(C)o3)cnc2CC)cn1` [Example 73, 1-ethyl-3-(2′-ethyl-5′-(5-methyl-1,3,4-oxadiazol-2-yl)-4-(4-(trifluoromethyl)thiazol-2-yl)-3,3′-bipyridin-6-yl)urea], the inhibition at 1 µM is 97%.

Turning to `CCNC(=O)Nc1cc(-c2nc(-c3ccccc3)cs2)c(-c2cc(-c3nnc(C)o3)cnc2CC)cn1` [Example 74], the inhibition at 1 µM is 94%. `CCNC(=O)Nc1cc(-c2nc(C(F)(F)F)cs2)c(-c2cc(OCC)nc(-c3n[nH]c(=O)o3)c2)cn1` [Example 75, 1-(2′-ethoxy-6′-(5-oxo-4,5-dihydro-1,3,4-oxadiazol-2-yl)-4-(4-(trifluoromethyl)thiazol-2-yl)-3,4′-bipyridin-6-yl)-3-ethylurea]: the inhibition at 1 µM was found to be 99%. For `CCNC(=O)Nc1cc(-c2nc(C(F)(F)F)cs2)c(-c2cc(OCC)nc(-c3nnc(C)o3)c2)cn1` [Example 76, 1-(2′-ethoxy-6′-(5-methyl-1,3,4-oxadiazol-2-yl)-4-(4-(trifluoromethyl)thiazol-2-yl)-3,4′-bipyridin-6-yl)-3-ethylurea], the inhibition at 1 µM amounted to 100%. The result for `CCNC(=O)Nc1cc(-c2nc(-c3ccccc3)cs2)c(-c2cc(OCC)nc(-c3n[nH]c(=O)o3)c2)cn1` [Example 77, 1-(2′-ethoxy-6′-(5-oxo-4,5-dihydro-1,3,4-oxadiazol-2-yl)-4-(4-phenylthiazol-2-yl)-3,4′-bipyridin-6-yl)-3-ethylurea] reads 97%; that for `CCNC(=O)Nc1cc(-c2nc(-c3ccccc3)cs2)c(-c2cc(OCC)nc(-c3nnc(C)o3)c2)cn1` [Example 78, 1-(2′-ethoxy-6′-(5-methyl-1,3,4-oxadiazol-2-yl)-4-(4-phenylthiazol-2-yl)-3,4′-bipyridin-6-yl)-3-ethylurea], 99%; that for `CCNC(=O)Nc1cc(-c2nc(C(F)(F)F)cs2)c(-c2cc(OC(C)C)nc(-c3n[nH]c(=O)o3)c2)cn1` [Example 79, 1-ethyl-3-(2′-isopropoxy-6′-(5-oxo-4,5-dihydro-1,3,4-oxadiazol-2-yl)-4-(4-(trifluoromethyl)thiazol-2-yl)-3,4′-bipyridin-6-yl)urea], 95%. For `CCNC(=O)Nc1cc(-c2nc(C(F)(F)F)cs2)c(-c2cc(OC(C)C)nc(-c3nnc(C)o3)c2)cn1` [Example 80, 1-ethyl-3-(2′-isopropoxy-6′-(5-methyl-1,3,4-oxadiazol-2-yl)-4-(4-(trifluoromethyl)thiazol-2-yl)-3,4′-bipyridin-6-yl)urea] the value was 96%. In the case of `CCNC(=O)Nc1cc(-c2nc(-c3ccccc3)cs2)c(-c2cc(OC(C)C)nc(-c3n[nH]c(=O)o3)c2)cn1` [Example 81, 1-ethyl-3-(2′-isopropoxy-6′-(5-oxo-4,5-dihydro-1,3,4-oxadiazol-2-yl)-4-(4-phenylthiazol-2-yl)-3,4′-bipyridin-6-yl)urea], the inhibition at 1 µM was found to be 94%.

One may read the inhibition as the drop in the measured response relative to a control, in per cent.

(Values after patent US20120101100A1 (priority 2008, published 2012).)
